We go through five compounds from PubChem BioAssay AID1918996 (Molecular Pharmacology Branch, DTP, NCI, 2023).

In general, IC50 refers to the concentration that gives 50% inhibition. Usually viability, T/C stands for the result in the treated group divided by that in the control group, in per cent.
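Note: spheroids exposed to agents for seven days before luminescence viability read.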
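Throughout, for viability, T/C: spheroids also contain HUVEC endothelial cells and human MSC stroma.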

In the first test the test system is 349418-098-R-PDC complex spheroid growth. The test is described as follows: Anticancer human tumor 349418-098-R-PDC patient-derived lung adenocarcinoma cell line growth inhibition [AhR]. To be noted: curve of first compound; second compound 0.1 µM. In a few lines:
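Complex tumor spheroids co-cultured with HUVEC and human MSC stroma; AhR antagonists tested in combination with standard-of-care and investigational agents. Top concentration at or near clinical Cmax (else 10 microM), half-log dilutions; growth expressed as percent test/control.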
With `CC(C)c1c(-c2ccccc2)nc2c(C#N)c[nH]n2c1=O` + CC(CO)NC(=O)c1cc(-c2ccc(Cl)cc2)nn(-c2cnn(C)c2)c1=O, the IC50 was greater than 10000 nM.
The same measure, in the same setting: to `CC1COCCN1c1cc(-c2ccnn2C)c2ccnc(-c3ccn[nH]3)c2n1` (stereo not drawn) + CC(CO)NC(=O)c1cc(-c2ccc(Cl)cc2)nn(-c2cnn(C)c2)c1=O belongs 79.1 nM; to `COc1ccc([C@@H](O)c2cc(-c3ncnc4cc(N5CCOCC5)ccc34)c(F)cc2Cl)nn1` + CC(CO)NC(=O)c1cc(-c2ccc(Cl)cc2)nn(-c2cnn(C)c2)c1=O, 2060 nM.
Still for that read-out and setting: to `COc1cccc2c1C(=O)c1c(O)c3c(c(O)c1C2=O)CC(O)(C(=O)CO)CC3OC1CC(N)C(O)C(C)O1` (stereo not drawn) + Cc1ccccc1N=Nc1ccc(NC(=O)c2ccnn2C)c(C)c1 belongs less than 31.6 nM.
Same read-out and setting: to `Nc1ncn(C2CC(O)C(CO)O2)c(=O)n1` (stereo not drawn) + Cc1ccccc1N=Nc1ccc(NC(=O)c2ccnn2C)c(C)c1 belongs 59 nM.

The test is the same for the next values; noted with them: curve of first compound; second compound 0.316 µM.
Regarding `CC(C)c1c(-c2ccccc2)nc2c(C#N)c[nH]n2c1=O` + CC(CO)NC(=O)c1cc(-c2ccc(Cl)cc2)nn(-c2cnn(C)c2)c1=O, the half-maximal inhibitory concentration (IC50) was greater than 10000 nM.
As for `CC1COCCN1c1cc(-c2ccnn2C)c2ccnc(-c3ccn[nH]3)c2n1` (stereo not drawn) + CC(CO)NC(=O)c1cc(-c2ccc(Cl)cc2)nn(-c2cnn(C)c2)c1=O, the IC50 stood at 68.8 nM.
For the compound `COc1ccc([C@@H](O)c2cc(-c3ncnc4cc(N5CCOCC5)ccc34)c(F)cc2Cl)nn1` + CC(CO)NC(=O)c1cc(-c2ccc(Cl)cc2)nn(-c2cnn(C)c2)c1=O, the IC50 is 1260 nM.
The same measure, in the same setting: to `COc1cccc2c1C(=O)c1c(O)c3c(c(O)c1C2=O)CC(O)(C(=O)CO)CC3OC1CC(N)C(O)C(C)O1` (stereo not drawn) + Cc1ccccc1N=Nc1ccc(NC(=O)c2ccnn2C)c(C)c1 belongs less than 31.6 nM; to `Nc1ncn(C2CC(O)C(CO)O2)c(=O)n1` (stereo not drawn) + Cc1ccccc1N=Nc1ccc(NC(=O)c2ccnn2C)c(C)c1, 66.1 nM.

Still in this test, the particulars now being: curve of first compound; second compound 1 µM.
As to `CC(C)c1c(-c2ccccc2)nc2c(C#N)c[nH]n2c1=O` + CC(CO)NC(=O)c1cc(-c2ccc(Cl)cc2)nn(-c2cnn(C)c2)c1=O, the concentration for half-maximal inhibition (IC50) is greater than 10000 nM.
Same read-out and setting: to `CC1COCCN1c1cc(-c2ccnn2C)c2ccnc(-c3ccn[nH]3)c2n1` (stereo not drawn) + CC(CO)NC(=O)c1cc(-c2ccc(Cl)cc2)nn(-c2cnn(C)c2)c1=O belongs 82.3 nM; to `COc1ccc([C@@H](O)c2cc(-c3ncnc4cc(N5CCOCC5)ccc34)c(F)cc2Cl)nn1` + CC(CO)NC(=O)c1cc(-c2ccc(Cl)cc2)nn(-c2cnn(C)c2)c1=O, 848 nM.
Same read-out and setting: the figure for `COc1cccc2c1C(=O)c1c(O)c3c(c(O)c1C2=O)CC(O)(C(=O)CO)CC3OC1CC(N)C(O)C(C)O1` (stereo not drawn) + Cc1ccccc1N=Nc1ccc(NC(=O)c2ccnn2C)c(C)c1 is less than 31.6 nM; for `Nc1ncn(C2CC(O)C(CO)O2)c(=O)n1` (stereo not drawn) + Cc1ccccc1N=Nc1ccc(NC(=O)c2ccnn2C)c(C)c1 it is 107 nM.

The test is the same for the next values; noted with them: curve of first compound; second compound 3.16 µM.
Turning to `CC(C)c1c(-c2ccccc2)nc2c(C#N)c[nH]n2c1=O` + CC(CO)NC(=O)c1cc(-c2ccc(Cl)cc2)nn(-c2cnn(C)c2)c1=O, the IC50 is greater than 10000 nM.
On the same count and under the same terms, to `CC1COCCN1c1cc(-c2ccnn2C)c2ccnc(-c3ccn[nH]3)c2n1` (stereo not drawn) + CC(CO)NC(=O)c1cc(-c2ccc(Cl)cc2)nn(-c2cnn(C)c2)c1=O belongs 67.4 nM; to `COc1ccc([C@@H](O)c2cc(-c3ncnc4cc(N5CCOCC5)ccc34)c(F)cc2Cl)nn1` + CC(CO)NC(=O)c1cc(-c2ccc(Cl)cc2)nn(-c2cnn(C)c2)c1=O, 1070 nM.
Still for that read-out and setting: the figure for `COc1cccc2c1C(=O)c1c(O)c3c(c(O)c1C2=O)CC(O)(C(=O)CO)CC3OC1CC(N)C(O)C(C)O1` (stereo not drawn) + Cc1ccccc1N=Nc1ccc(NC(=O)c2ccnn2C)c(C)c1 is less than 31.6 nM; for `Nc1ncn(C2CC(O)C(CO)O2)c(=O)n1` (stereo not drawn) + Cc1ccccc1N=Nc1ccc(NC(=O)c2ccnn2C)c(C)c1 it is 68 nM.

Still in this test, the particulars now being: curve of first compound; second compound 10 µM.
`CC(C)c1c(-c2ccccc2)nc2c(C#N)c[nH]n2c1=O` + CC(CO)NC(=O)c1cc(-c2ccc(Cl)cc2)nn(-c2cnn(C)c2)c1=O: the IC50 is 170 nM.
Still for that read-out and setting: to `CC1COCCN1c1cc(-c2ccnn2C)c2ccnc(-c3ccn[nH]3)c2n1` (stereo not drawn) + CC(CO)NC(=O)c1cc(-c2ccc(Cl)cc2)nn(-c2cnn(C)c2)c1=O belongs 52.9 nM; to `COc1ccc([C@@H](O)c2cc(-c3ncnc4cc(N5CCOCC5)ccc34)c(F)cc2Cl)nn1` + CC(CO)NC(=O)c1cc(-c2ccc(Cl)cc2)nn(-c2cnn(C)c2)c1=O, 375 nM; to `COc1cccc2c1C(=O)c1c(O)c3c(c(O)c1C2=O)CC(O)(C(=O)CO)CC3OC1CC(N)C(O)C(C)O1` (stereo not drawn) + Cc1ccccc1N=Nc1ccc(NC(=O)c2ccnn2C)c(C)c1, less than 31.6 nM.
The same measure, in the same setting: to `Nc1ncn(C2CC(O)C(CO)O2)c(=O)n1` (stereo not drawn) + Cc1ccccc1N=Nc1ccc(NC(=O)c2ccnn2C)c(C)c1 belongs 50.5 nM.

Staying with this test, now noted: second compound 0.1 µM; first compound 0.00316 µM; stronger effect = lower value.
With `CC1COCCN1c1cc(-c2ccnn2C)c2ccnc(-c3ccn[nH]3)c2n1` (stereo not drawn) + CC(CO)NC(=O)c1cc(-c2ccc(Cl)cc2)nn(-c2cnn(C)c2)c1=O, the viability, T/C was 90.3%.
The same measure, in the same setting: the figure for `Nc1ncn(C2CC(O)C(CO)O2)c(=O)n1` (stereo not drawn) + Cc1ccccc1N=Nc1ccc(NC(=O)c2ccnn2C)c(C)c1 is 97.8%.

The same test, now with this note: second compound 0.1 µM; first compound 0.01 µM; stronger effect = lower value.
Turning to `CC1COCCN1c1cc(-c2ccnn2C)c2ccnc(-c3ccn[nH]3)c2n1` (stereo not drawn) + CC(CO)NC(=O)c1cc(-c2ccc(Cl)cc2)nn(-c2cnn(C)c2)c1=O, the viability, T/C was 99.2%.
In the case of `Nc1ncn(C2CC(O)C(CO)O2)c(=O)n1` (stereo not drawn) + Cc1ccccc1N=Nc1ccc(NC(=O)c2ccnn2C)c(C)c1, the viability, T/C was 103%.

Still in this test, the particulars now being: second compound 0.1 µM; first compound 0.0316 µM; stronger effect = lower value.
As to `CC(C)c1c(-c2ccccc2)nc2c(C#N)c[nH]n2c1=O` + CC(CO)NC(=O)c1cc(-c2ccc(Cl)cc2)nn(-c2cnn(C)c2)c1=O, the viability, T/C was 91.8%.
Regarding `CC1COCCN1c1cc(-c2ccnn2C)c2ccnc(-c3ccn[nH]3)c2n1` (stereo not drawn) + CC(CO)NC(=O)c1cc(-c2ccc(Cl)cc2)nn(-c2cnn(C)c2)c1=O, the viability, T/C was 81.9%.
The same measure, in the same setting: to `COc1ccc([C@@H](O)c2cc(-c3ncnc4cc(N5CCOCC5)ccc34)c(F)cc2Cl)nn1` + CC(CO)NC(=O)c1cc(-c2ccc(Cl)cc2)nn(-c2cnn(C)c2)c1=O belongs 81.3%.
Same read-out and setting: the figure for `COc1cccc2c1C(=O)c1c(O)c3c(c(O)c1C2=O)CC(O)(C(=O)CO)CC3OC1CC(N)C(O)C(C)O1` (stereo not drawn) + Cc1ccccc1N=Nc1ccc(NC(=O)c2ccnn2C)c(C)c1 is 25.2%; for `Nc1ncn(C2CC(O)C(CO)O2)c(=O)n1` (stereo not drawn) + Cc1ccccc1N=Nc1ccc(NC(=O)c2ccnn2C)c(C)c1 it is 66.1%.

Staying with this test, now noted: second compound 0.1 µM; first compound 0.1 µM; stronger effect = lower value.
`CC(C)c1c(-c2ccccc2)nc2c(C#N)c[nH]n2c1=O` + CC(CO)NC(=O)c1cc(-c2ccc(Cl)cc2)nn(-c2cnn(C)c2)c1=O: the viability, T/C is 66.8%.
On the same count and under the same terms, the figure for `CC1COCCN1c1cc(-c2ccnn2C)c2ccnc(-c3ccn[nH]3)c2n1` (stereo not drawn) + CC(CO)NC(=O)c1cc(-c2ccc(Cl)cc2)nn(-c2cnn(C)c2)c1=O is 41.9%; for `COc1ccc([C@@H](O)c2cc(-c3ncnc4cc(N5CCOCC5)ccc34)c(F)cc2Cl)nn1` + CC(CO)NC(=O)c1cc(-c2ccc(Cl)cc2)nn(-c2cnn(C)c2)c1=O it is 89.9%; for `COc1cccc2c1C(=O)c1c(O)c3c(c(O)c1C2=O)CC(O)(C(=O)CO)CC3OC1CC(N)C(O)C(C)O1` (stereo not drawn) + Cc1ccccc1N=Nc1ccc(NC(=O)c2ccnn2C)c(C)c1 it is 19%.
Still for that read-out and setting: the figure for `Nc1ncn(C2CC(O)C(CO)O2)c(=O)n1` (stereo not drawn) + Cc1ccccc1N=Nc1ccc(NC(=O)c2ccnn2C)c(C)c1 is 39.9%.

Still in this test, the particulars now being: second compound 0.1 µM; first compound 0.316 µM; stronger effect = lower value.
`CC(C)c1c(-c2ccccc2)nc2c(C#N)c[nH]n2c1=O` + CC(CO)NC(=O)c1cc(-c2ccc(Cl)cc2)nn(-c2cnn(C)c2)c1=O: the viability, T/C was 98.2%.
Same read-out and setting: to `CC1COCCN1c1cc(-c2ccnn2C)c2ccnc(-c3ccn[nH]3)c2n1` (stereo not drawn) + CC(CO)NC(=O)c1cc(-c2ccc(Cl)cc2)nn(-c2cnn(C)c2)c1=O belongs 14.2%; to `COc1ccc([C@@H](O)c2cc(-c3ncnc4cc(N5CCOCC5)ccc34)c(F)cc2Cl)nn1` + CC(CO)NC(=O)c1cc(-c2ccc(Cl)cc2)nn(-c2cnn(C)c2)c1=O, 62.5%; to `COc1cccc2c1C(=O)c1c(O)c3c(c(O)c1C2=O)CC(O)(C(=O)CO)CC3OC1CC(N)C(O)C(C)O1` (stereo not drawn) + Cc1ccccc1N=Nc1ccc(NC(=O)c2ccnn2C)c(C)c1, 5.76%.
